Measurements from US20250073223A1, “TARGETED NANOCARRIERS FOR SYSTEMIC DELIVERY OF IRAK4 INHIBITORS TO INFLAMED TISSUES” (Oregon State University, priority 2023, published 2025).

Experiments:
[1] = cited from earlier work
[2] = tested on: mice with DSS-induced colitis; assay: DSS-induced colitis efficacy (colon length, body weight, colon damage); assay type: in vivo, C57BL/6 mice
Method: To evaluate the anti-inflammatory action of the developed VCAM1-IRAK4 NC, mice were administered with 5% DSS in drinking water for 7 days and injected IV with the VCAM1-targeted nanocarriers loaded with IRAK4 inhibitor (23 mg kg^−1) on day 0, 2, 4, and 6 of DSS treatment initiation (Y. Lec, K. Sugihara, M. G. Gillilland, 3rd, S. Jon, N. Kamada, J. J. Moon, Nat. Mater. 2020, 19, 118). […] A healthy control group without DSS administration and a DSS-induced colitis group without the injection of VCAM1-IRAK4 NC were also prepared. […] Pharmacother. 2022, 153, 113459).
In vivo evaluation of VCAM1-IRAK4 NC in mice with DSS-induced colitis. […] To evaluate the accumulation of VCAM1-targeted nanocarriers in inflamed tissue, the shaved mice with induced colitis were injected IV with SiNc-loaded IRAK4 NC and VCAM1-IRAK4 NC, and NIR fluorescence images of the excised colons and major organs were recorded 24 hours post-administration. The fluorescence images were obtained using a Pearl Impulse fluorescence imaging system (LI-COR, Lincoln, NE) and the mean fluorescence intensity of region of interest was obtained using Pearl Impulse Software (LI-COR, Lincoln, NE). […] Colon length without the cecum was measured, and colon tissues were gently washed with PBS. […] NucBlue™ Fixed Cell ReadyProbes™ Reagent (ThermoFisher Scientific, Waltham, MA, USA) was used to stain the nuclei. […]

Compound: CC[C@@H]1[C@H](F)C(=O)N[C@@H]1COc1nccc2cc(C(N)=O)c(OC)cc12 [PF-06650833, zimlovisertib]
- absolute oral bioavailability ([1]; oral): low
- dose-limiting side effects ([1]; two phase I clinical trials): no dose-limiting side effects were observed
- tolerability ([1]; two phase I clinical trials): well tolerated
- average colon length ([2]; free drug in 60% saline, 30% PEG400, 10% DMSO, 23 mg kg^−1, 4 IV injections, healthy 5.97±0.18, DSS saline 4.87±0.12 (FIG. 15A)): 4.74±0.35 cm
- therapeutic effect on colitis ([2]; free drug, 23 mg kg^−1, 4 IV injections every 2 days): no noticeable therapeutic effect
